# Data as given in ChEMBL document CHEMBL3244029, “Synthesis and stereospecific antipsychotic activity of (-)-1-cyclopropylmethyl-4-(3-trifluoromethylthio-5H-dibenzo[a,d]cyclohepten-5-ylidene)piperidine” (J Med Chem, 1977).
# Where “and” joins values, the source holds several entries; their conditions need not be identical. Equal entries are not always repeated.
# Legend:
# Saimiri [1] = assay: (§1) Antipsychotic activity in squirrel monkey assessed as inhibition of conditioned avoidance response measured as maximum number of shocks possible per 30 mins interval at 1 mg/kg, po 6 days later animal received test compound followed by 0.75 mg/kg, im benztropine 15 mins later measured after 2.5 to 3 hrs of dosing; assay type: functional
# Saimiri [2] = assay: Antipsychotic activity in squirrel monkey assessed as inhibition of conditioned avoidance response measured as maximum number of shocks possible per 30 mins interval at 0.50 mg/kg, po after 120 to 150 mins dosing; assay type: functional; conditions: dose 0.5 mg/kg
# Saimiri [3] = assay: Antipsychotic activity in squirrel monkey assessed as inhibition of conditioned avoidance response measured as maximum number of shocks possible per 30 mins interval at 1 mg/kg, po 10 days later animal received test compound and again saline measured after 1.5 to 2 hrs of dosing; assay type: functional
# Mus musculus [4] = assay: Central anticholinergic activity against physostigmine-induced lethality in Carworth CF1 mouse assessed as animal death at 7.5 mg/kg, po treated 5 hrs before 1.6 mg/kg, sc physostigmine treatment and 2 mg/kg, ip atropine methyl nitrate treated 0.5 hrs before induction (reference value: 0%); assay type: functional
# Saimiri [5] = assay: Antipsychotic activity in squirrel monkey assessed as inhibition of conditioned avoidance response measured as maximum number of shocks possible per 30 mins interval at 1 mg/kg, po after 210 to 240 mins dosing; assay type: functional
# Saimiri [6] = assay: Antipsychotic activity in squirrel monkey assessed as inhibition of conditioned avoidance response measured as maximum number of shocks possible per 30 mins interval at 1 mg/kg, po 10 days later animal received test compound and again saline measured after 2.5 to 3 hrs of dosing; assay type: functional
# Saimiri [7] = assay: as §1, with “after 1” for “after 2.5”, “to 1.5” for “to 3”; assay type: functional
# Mus musculus [8] = assay: Central anticholinergic activity against physostigmine-induced lethality in Carworth CF1 mouse assessed as animal death at 30 mg/kg, po treated 5 hrs before 1.6 mg/kg, sc physostigmine treatment and 2 mg/kg, ip atropine methyl nitrate treated 0.5 hrs before induction (reference value: 0%); assay type: functional
# Mus musculus [9] = assay: Central anticholinergic activity against physostigmine-induced lethality in Carworth CF1 mouse assessed as animal death at 3.75 mg/kg, po treated 5 hrs before 1.6 mg/kg, sc physostigmine treatment and 2 mg/kg, ip atropine methyl nitrate treated 0.5 hrs before induction (reference value: 0%); assay type: functional
# Saimiri [10] = assay: Antipsychotic activity in squirrel monkey assessed as inhibition of conditioned avoidance response measured as maximum number of shocks possible per 30 mins interval at 1 mg/kg, po 10 days later animal received test compound and again saline measured after 1 to 1.5 hrs of dosing; assay type: functional
# Saimiri [11] = assay: Antipsychotic activity in squirrel monkey assessed as inhibition of conditioned avoidance response measured as maximum number of shocks possible per 30 mins interval at 0.25 mg/kg, po after 30 to 60 mins dosing; assay type: functional
# Saimiri [12] = assay: as §1, with “after 0.5” for “after 2.5”, “to 1” for “to 3”; assay type: functional
# Mus musculus [13] = assay: Central anticholinergic activity against physostigmine-induced lethality in Carworth CF1 mouse assessed as animal death at 15 mg/kg, po treated 5 hrs before 1.6 mg/kg, sc physostigmine treatment and 2 mg/kg, ip atropine methyl nitrate treated 0.5 hrs before induction (reference value: 0%); assay type: functional
# Saimiri [14] = assay: as §1, with “after 1.5” for “after 2.5”, “to 2” for “to 3”; assay type: functional
# Saimiri [15] = assay: Antipsychotic activity in squirrel monkey assessed as inhibition of conditioned avoidance response measured as maximum number of shocks possible per 30 mins interval at 0.50 mg/kg, po after 90 to 120 mins dosing; assay type: functional; conditions: dose 0.5 mg/kg
# Saimiri [16] = assay: as §1, with “after 3.5” for “after 2.5”, “to 4” for “to 3”; assay type: functional
# Saimiri [17] = assay: Antipsychotic activity in squirrel monkey assessed as inhibition of conditioned avoidance response measured as maximum number of shocks possible per 30 mins interval at 1 mg/kg, po after 240 to 270 mins dosing; assay type: functional
# Saimiri [18] = assay: Antipsychotic activity in squirrel monkey assessed as inhibition of conditioned avoidance response measured as maximum number of shocks possible per 30 mins interval at 0.25 mg/kg, po after 60 to 90 mins dosing; assay type: functional
# Saimiri [19] = assay: Antipsychotic activity in squirrel monkey assessed as inhibition of conditioned avoidance response measured as maximum number of shocks possible per 30 mins interval at 1 mg/kg, po after 180 to 210 mins dosing; assay type: functional
# Saimiri [20] = assay: as §1, with “after 3” for “after 2.5”, “to 3.5” for “to 3”; assay type: functional
# Saimiri [21] = assay: Antipsychotic activity in squirrel monkey assessed as inhibition of conditioned avoidance response measured as maximum number of shocks possible per 30 mins interval at 1 mg/kg, po 10 days later animal received test compound and again saline measured after 3 to 3.5 hrs of dosing; assay type: functional
# Saimiri [22] = assay: as §1, with “after 0” for “after 2.5”, “to 0.5” for “to 3”; assay type: functional
# Saimiri [23] = assay: as §1, with “after 4” for “after 2.5”, “to 4.5” for “to 3”; assay type: functional
# Mus musculus [24] = assay: Peripheral anticholinergic activity in po dosed Carworth CF1 mouse assessed as dose required to produce pupil dilation to 1.5 micrometer units in 50% mouse after 5 hrs; assay type: ADME, organism-based; conditions: in vivo
# Mus musculus [25] = assay: Peripheral anticholinergic activity in po dosed Carworth CF1 mouse assessed as dose required to produce pupil dilation to 1.5 micrometer units in 50% mouse after 2 hrs; assay type: ADME, organism-based; conditions: in vivo
# Saimiri [26] = assay: Antipsychotic activity in squirrel monkey assessed as inhibition of conditioned avoidance response measured as maximum number of shocks possible per 30 mins interval at 0.50 mg/kg, po after 150 to 180 mins dosing; assay type: functional; conditions: dose 0.5 mg/kg
# Saimiri [27] = assay: Antipsychotic activity in squirrel monkey assessed as inhibition of conditioned avoidance response measured as maximum number of shocks possible per 30 mins interval at 1 mg/kg, po 10 days later animal received test compound and again saline measured after 0 to 0.5 hrs of dosing; assay type: functional
# Saimiri [28] = assay: as §1, with “after 2 to” for “after”, “2.5” for “2.5 to 3”; assay type: functional
# Saimiri [29] = assay: Antipsychotic activity in squirrel monkey assessed as inhibition of conditioned avoidance response measured as maximum number of shocks possible per 30 mins interval at 0.25 mg/kg, po after 0 to 30 mins dosing; assay type: functional
# Saimiri [30] = assay: Antipsychotic activity in squirrel monkey assessed as inhibition of conditioned avoidance response measured as maximum number of shocks possible per 30 mins interval at 1 mg/kg, po 10 days later animal received test compound and again saline measured after 3.5 to 4 hrs of dosing; assay type: functional
# Saimiri [31] = assay: Antipsychotic activity in squirrel monkey assessed as inhibition of conditioned avoidance response measured as maximum number of shocks possible per 30 mins interval at 1 mg/kg, po 10 days later animal received test compound and again saline measured after 0.5 to 1 hrs of dosing; assay type: functional
# Saimiri [32] = assay: Antipsychotic activity in squirrel monkey assessed as inhibition of conditioned avoidance response measured as maximum number of shocks possible per 30 mins interval at 1 mg/kg, po 10 days later animal received test compound and again saline measured after 2 to 2.5 hrs of dosing; assay type: functional
# Saimiri [33] = assay: Antipsychotic activity in squirrel monkey assessed as inhibition of conditioned avoidance response measured as maximum number of shocks possible per 30 mins interval at 1 mg/kg, po 10 days later animal received test compound and again saline measured after 4 to 4.5 hrs of dosing; assay type: functional
# Mus musculus [34] = assay: Central anticholinergic activity against physostigmine-induced lethality in Carworth CF1 mouse assessed as animal death at 10 mg/kg, po treated 5 hrs before 1.6 mg/kg, sc physostigmine treatment and 2 mg/kg, ip atropine methyl nitrate treated 0.5 hrs before induction (reference value: 0%); assay type: functional
# Saimiri [35] = assay: Antipsychotic activity in po dosed squirrel monkey assessed as inhibition of conditioned avoidance response measured as maximum number of shocks; assay type: functional; conditions: Saimiri, in Primates, po; read-out: ED50
# Rattus norvegicus = assay: Blockade of po dosed apomorphine-induced stereotyped behavior in Sprague-Dawley rat assessed as continuous sniffing, licking, gnawing, or biting; assay type: functional
structure (smiles),measurement,setting,value
"FC(F)(F)Sc1ccc2c(c1)C(=C1CCN(CC3CC3)CC1)c1ccccc1C=C2 (single isomer, unassigned; atropisomer)",%max,Saimiri [1],4.3%
same,%max,Saimiri [2],39.4%
same,%max,Saimiri [3],52.7%
same,Activity,Mus musculus [4],95% and 80%
same,%max,Saimiri [5],100%
same,%max,Saimiri [6],42.7%
same,%max,Saimiri [7],5.7%
same,Activity,Mus musculus [8],85% and 63%
same,Activity,Mus musculus [9],100%
same,%max,Saimiri [10],42%
same,%max,Saimiri [11],0.34%
same,%max,Saimiri [12],7.6%
same,Activity,Mus musculus [13],100% and 85%
same,%max,Saimiri [14],5.3%
same,%max,Saimiri [15],17.4%
same,%max,Saimiri [16],3%
same,%max,Saimiri [17],100%
same,%max,Saimiri [18],0.68%
same,%max,Saimiri [19],100%
same,%max,Saimiri [20],4%
same,%max,Saimiri [21],70.3%
same,%max,Saimiri [22],2%
same,%max,Saimiri [23],3.7%
same,ED,Mus musculus [24],> 120 mg/kg
same,ED,Mus musculus [25],> 120 mg/kg
same,%max,Saimiri [26],97.4%
same,%max,Saimiri [27],0%
same,%max,Saimiri [28],8.7%
same,%max,Saimiri [29],0.34%
same,%max,Saimiri [30],73%
same,%max,Saimiri [31],1.7%
same,%max,Saimiri [32],69.3%
same,%max,Saimiri [33],64.3%
CN1CCC(=C2c3ccccc3C=Cc3ccccc32)CC1 [CYPROHEPTADINE],Activity,Mus musculus [34],0%
same,ED,Mus musculus [25],6 mg/kg
O=C(CCCN1CCC(O)(c2ccc(Cl)cc2)CC1)c1ccc(F)cc1 [HALOPERIDOL],ED50,Saimiri [35],0.29 mg/kg
same,ED50,Rattus norvegicus,0.32 mg/kg
CSc1ccc2c(c1)N(CCC1CCCCN1C)c1ccccc1S2.Cl (stereo not drawn) [THIORIDAZINE HYDROCHLORIDE],ED50,Saimiri [35],0.97 mg/kg
